This is an account of results in PMC9671962 (Communications Biology, 2022).

Each structure is given as a SMILES string. Where two headings read alike, the source gives them in different places.

The test system of one data set is PARP1. Particulars: cited from earlier work; for maximum standardized uptake values (SUVmax): clinical PET.
On the set-up of data set [1]: method as in PMID 27841728, PMID 27261505. The following applies: cited from earlier work.
Details of data set [2]: method as in PMID 27841728, PMID 28222073. The following applies: cited from earlier work.
The test system of a further data set is neuroblastoma. Particulars: cited from earlier work.
On the set-up of data set [3]: method as in PMID 28408529. Particulars: cited from earlier work.
The next data set has as its system NB-EBC1x tumor. The data set can be described thus: Biodistribution, autoradiography and tumor dosimetry in NB-EBC1x tumor-bearing mice. The format is in vivo, female SCID CB17 mice. The following applies: 1 hour. As for the experimental part:
At various time points mice were euthanized and tissues were harvested, weighed, and assayed for radioactivity by gamma counter. Decay corrected data presented as percent injected dose per gram of tissue (%ID/g). Human dosimetry was calculated using OLINDA/EXM software by fitting time activity curves for biodistribution data. Tissue autoradiography was performed by freezing excised tumors at 1 h postinjection of each respective treatment. One tumor was collected for each treatment group. Tumors were cryosectioned (Leica Cryotome) at a thickness of 20 µm. Each section was collected with a 200 µm gap and a total of three sections were collected for each tumor. Sections were then exposed to a phosphorfilm for 60 h and films were read on a Cyclone Plus phosphorimager (Perkin Elmer). Experimental conditions have been included in the Supplementary Methods.
Animal studies were performed in female mice due to the lack of sex-related differences for [^211At]PTT tolerability from initial dose response studies performed in female and male mice. Female mice were chosen due to their underlying behavior towards other study subjects that reduced nonstudy-related causes for decreased wellness. Pre-clinical efficacy studies were performed through “single mouse testing” to more closely recapitulate a clinical trial. […] Number size for treatment groups was determined by model tumor growth reproducibility, which was previously shown to have less than 5% normal variation with at least two animals. Statistical tests for tumor response and event-free survival (EFS) were performed as a grouped analysis that included all tumor models treated at each respective dose level (n = 2 per model per dose level). Statistical differences between treatment groups for tumor response was performed by paired-model T-test that compared reduction in tumor volume for the 36 MBq/kg dose level vs. 24 MBq/kg or 12 MBq/kg. Event free survival was measured by area over the curve method to quantify time to event, which was set as tumor growth exceeding 2 cm[3],[19]. Differences in EFS were tested across all treated models for each respective dose level, and against untreated controls, by paired-model ANOVA analysis. Associations of drug target expression and response were performed by linear regression analysis of EFS and PARP1 mRNA expression. Genetic signatures were visually presented as a function of EFS and no statistical tests were applied. Blood and marrow toxicity studies were performed with n = 5 sample sizes and powered to detect >20% differences between untreated controls and treated animals. Results were tested for significance by one-way ANOVA comparison from untreated controls. Marrow colony formation assays were performed in replicates of 2 for each mouse subject, dependent on marrow isolation, and all replicates are included in final analyses. Statistical analysis was performed by ordinary one-way ANOVA comparison between the mean of control and test groups. Biodistribution studies were performed with n = 3 mice per time-point. Human dosimetry was calculated using OLINDA/EXM v1.1 software by fitting time activity curves for biodistribution data in a healthy mouse model. Tumor dosimetry was calculated by OLINDA/EXM v1.1 by fitting time activity curves for NB-EBC1 tumors from biodistribution data. All statistical analyses were performed in GraphPad Prism version 9.3.1 unless indicated otherwise.

For data set [4] the following is noted: mice; cited from earlier work.
For data set [5] the following is noted: in vitro; ref previously shown by the authors, no reference given; cited from earlier work.

Take `O=C1NCCn2c(-c3ccc(OCC[18F])cc3)nc3cccc1c32` [[^18F]FTT, fluorine-18 Fluorthanatrace]: in the data set on PARP1 (adults), the estimated kidney dose is reported as 0.018–0.027 mGy/MBq. For the same compound, the “maximum standardized uptake values (SUVmax)” value in the data set on PARP1 (breast cancer) is listed as 4–7; in the data set with PARP1 (ovarian cancer), 2–9. For the same compound, the “time of rapid tumor uptake kinetics post injection” value with PARP1 (ovarian cancer patients, minimal wash-out) is 60 to 180 min. Moreover, the thyroid uptake result in data set [1] is given as “around 4 % ID/g”. Moreover, in data set [2], the “hepatobiliary clearance, share of blood clearance” value is given as more than 90%.

With `N=C(N)NCc1cccc([131I])c1` [[^131I]MIBG, iodine-131-metaiodobenzylguanidine], the overall survival benefit entry with neuroblastoma was “below 40%”.

On to `O=C([O-])CC[C@H](NC(=O)N[C@@H](CCCCNC(=O)[C@H](Cc1ccc2ccccc2c1)NC(=O)C1CCC(CNC(=O)CN2CCN(CC(=O)[O-])CCN(CC(=O)[O-])CCN(CC(=O)[O-])CC2)CC1)C(=O)[O-])C(=O)[O-].[225Ac].[H+].[H+].[H+]` (stereo partly shown) [[^225Ac]PSMA-617], for which the kidney dose in data set [3] is 740 mSv/MBq.

On to `[211At]` [free astatine-211, astatine-211, reference compound], for which the “tumor uptake compared to [^211At]PTT” value with NB-EBC1x tumor (2-way ANOVA p value 0.0088) was “lower uptake in tumor”. Besides, in the data set with NB-EBC1x tumor (2-way ANOVA p-value 0.0004), the “thyroid uptake compared to [^211At]PTT” value is “significantly higher uptake in thyroid”. Moreover, in data set [4], the “MTD for a single dose” value is given as “greater than 50 MBq/kg”. The “potency relative to [211At]PTT in vitro” value in data set [5] was less than 100 times.

With `CNCc1ccc(-c2[nH]c3cc(F)cc4c3c2CCNC4=O)cc1` [rucaparib], the “hepatobiliary clearance, share of blood clearance” value in data set [2] is given as more than 90%.
